Measured values taken from patent US10995068B2, “Synthetic sphingolipid-like molecules, drugs, methods of their synthesis and methods of treatment” (The Regents of the University of California, priority 2015, dated 2021).

Experiments:
[1] = target: T1, S1P receptor 2 (Homo sapiens, UniProt O95136); test: S1P receptor activation in CHO cells, S1P2; format: cell-based; settings: CHO cells over-expressing human S1P2
T1 construct: expressed in transfected cells
Description: (§1) Phosphorylation may have effects on S1P receptor activity that could cause bradycardia. Bradycardia, the dose-limiting toxicity that prevents the use of FTY720 in cancer patients, stems from FTY720-P's actions on S1P receptors 1 and 3. (Camm, J., et al. (2014) Am. Heart J. 168, 632-644; Cohen, J. A., Chun, J. (2011) Ann. Neurol. 69, 759-777; Sanna, M. G., et al. (2004) J. Biol. Chem. 279, 13839-13848; the disclosures of which are incorporated herein by reference). Phosphorylation by sphingosine kinase may make compounds competent to activate S1P receptors. FTY720, for example, when phosphorylated is known to activate S1P receptors 1 and 3. Because compound 5 could be phosphorylated, the activity of compound 5 and its phosphate 5-P (FIG. 28) on S1P receptors was evaluated (FIG. 32).
(§2) 51P1-5 activation: Chinese hamster ovary (CHO) cells stably over-expressing the different human 51P receptor subtypes are used. S1P1, S1P4 and S1P5 overexpressing CHO cells are cultured in medium containing alpha-MEM supplemented with 10% FBS, 50 μg/ml gentamycin and 0.5 mg/ml G418. S1P2 and S1P3 overexpressing CHO cells are cultured in RPMI containing 10% FBS, 50 μg/ml gentamycin and 0.5 mg/ml G418. Prior to stimulation, cells are rendered serum-free for 24 h. Stimulation is carried out for 10 min in serum-free DMEM containing 0.1 mg/ml of fatty-acid free BSA in the absence or presence of the various compounds or 51P. Protein lysates are prepared using a buffer containing (50 mM Tris pH 7.4, 150 mM NaCl, 10% glycerol, 1% Triton X-100, 2 mM EDTA, 2 mM EGTA, 40 mM β-glycerophosphate, 50 mM sodium fluoride, 10 mM sodium pyrophosphate, 2 mM dithiothreitol, 0.2 mM sodium orthovanadate). Cells are homogenized by one 5 sec burst in a MSE Ultrasonic Disintegrator, centrifuged and taken for protein determination. Equal amounts of protein are separated by SDS-PAGE (10% polyacrylamide gel), transferred to nitrocellulose membranes and subjected to Western blot analysis. Bands were stained using IRDye® secondary antibodies and visualized by the LICOR Odyssey® Fc Imaging system. Antibodies against phospho-Thr202/Tyr204-p42/p44-MAPK and phospho-Ser PKC substrate are from Cell Signaling, Frankfurt am Main, Germany. Polyclonal antisera against total p42 and total p44 were generated and characterized as previously described. (Huwiler, A.; Pfeilschifter, J. Br. J. Pharmacol. 1994, 113, 1455-1463; disclosure of which is incorporated herein by reference).

[2] = tested on: fusion of LC3-positive autophagosomes with LAMP1-positive lysosomes; test: Autophagosome-lysosome fusion in chloroquine-treated cells; format: cell-based
Protocol: It is known in the art that cells adapt to nutrient stress by increasing autophagic flux. However, autophagosome-lysosome fusion reactions depend upon […] release via TRPML1 channels that are activated by PI(3,5)P2. […] Chloroquine (CQ) is molecule that stabilizes the transient autophagosomes. Cells were treated with CG to stabilize autophagolysosomes and subsequently treated with FTY720, SH-BC-893, or YM201636. […] Phosphatidylinositol 5-Phosphate (PI(5)P) is essential for autophagosome biogenesis upon glucose depletion. PI(5)P is produced by dephosphorylating PI(3,5)P2, and thus PI(5)P might also be mis-localized in SH-BC-893-treated cells, and thus also contributing to the disruption of autophagosome formation. […] Thus, SH-BC-893 inhibited both autophagosome formation and degradation. As a control, Vac14 over-expression limited vacuolation (FIGS. 55F, 61F, and 62B) and rescued autophagic flux in SH-BC-893-treated cells (FIGS. 61A, 61B, 61D and 61E).
Light Microscopy: Brightfield and epifluorescence microscopy were conducted using a Nikon TE2000-S fluorescence microscope; confocal microscopy was performed on a Zeiss LSM780 confocal microscope or Nikon Eclipse Ti spinning disk confocal microscope. […] Co-localization was determined using JACoP plugin in ImageJ software. Macropinocytosis was measured after 16 h incubation in serum-free DMEM. p53−/−; LSL-K-RasG12D MEFs before (LSL) or after (KRasG12D) introduction of Cre were serum starved for 16 h and then treated with macropinocytosis inhibitor 5-(N-ethyl-N-isopropyl) amiloride (EIPA, 75 μM) for 1 h or SH-BC-893 for 6 h. Oregon Green dextran (Life Technologies, cat #D7173) (1 mg/mL) and Lysotracker Red (Life Technologies, cat #L-7525) (1:2,000 dilution) were added for 30 min and live cells were evaluated on the spinning disc confocal microscope. […]

[3] = target: T2, S1P receptor 1 (Homo sapiens, UniProt P21453); test: S1P receptor activation in CHO cells, S1P1; format: cell-based; settings: CHO cells over-expressing human S1P1, 10 min stimulation, Western blot
T2 construct: expressed in transfected cells
T2 sequence (P21453 whole entry): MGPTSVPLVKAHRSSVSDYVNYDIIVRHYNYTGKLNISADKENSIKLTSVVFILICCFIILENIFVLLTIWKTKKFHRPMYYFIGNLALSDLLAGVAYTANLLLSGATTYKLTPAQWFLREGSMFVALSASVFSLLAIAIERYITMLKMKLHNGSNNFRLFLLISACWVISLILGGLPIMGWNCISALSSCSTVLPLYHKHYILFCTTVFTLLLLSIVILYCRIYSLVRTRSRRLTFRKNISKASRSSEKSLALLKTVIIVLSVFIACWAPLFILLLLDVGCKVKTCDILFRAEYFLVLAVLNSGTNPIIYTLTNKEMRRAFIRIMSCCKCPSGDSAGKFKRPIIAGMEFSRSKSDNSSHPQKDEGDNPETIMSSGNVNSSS
Description: as §1, §2

[4] = tested on: 4F2 cell-surface antigen heavy chain (4F2hc); test: Surface 4F2hc nutrient transporter expression; format: cell-based, human; settings: treatment at IC50 and at twice this dose, 6 h; efficacy similar to FTY720
Description: The broad activity of the embodiments of the inventions described herein is consistent with a bioenergetic mechanism of action against cancer cells that includes nutrient transporter down-regulation, as described supra. Thus, to directly examine the constrained pyrrolidine sphingolipid-like molecules on nutrient transport, the surface-levels of the amino acid transporter associated protein 4F2 cell-surface antigen heavy chain (4F2hc) was examined following treatment with several analogues at their IC50 and at twice this dose.
Nutrient transporter expression: Surface 4F2hc expression is measured at 6 h using phycoerythrin (PE)-conjugated mouse anti-human 4F2hc antibody (BD Pharmingen, cat #556077); analysis is restricted to viable cells. PE conjugated Mouse IgG1, k (cat #555749, BD Pharmingen) is used as an isotype control. Cells are analyzed on a BD LSR II flow cytometer and with FlowJo software (Treestar).

T1 sequence (O95136 whole entry): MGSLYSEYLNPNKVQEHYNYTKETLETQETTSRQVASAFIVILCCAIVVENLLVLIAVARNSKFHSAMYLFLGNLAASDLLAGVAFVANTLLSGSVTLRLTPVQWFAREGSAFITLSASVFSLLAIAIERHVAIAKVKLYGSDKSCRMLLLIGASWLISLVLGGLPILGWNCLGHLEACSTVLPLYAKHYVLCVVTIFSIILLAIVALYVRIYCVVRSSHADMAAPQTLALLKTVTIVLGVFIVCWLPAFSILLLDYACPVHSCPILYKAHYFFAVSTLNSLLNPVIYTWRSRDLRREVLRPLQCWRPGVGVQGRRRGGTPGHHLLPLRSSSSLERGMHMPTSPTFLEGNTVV

CCCCCCCCc1ccc([C@H]2CCN[C@@H]2CO)cc1.Cl [Compound 5, (2S,3R)-2-(hydroxymethyl)-3-(4-octylphenyl)Pyrrolidinium chloride]
activation of S1P receptor 2 [1]: failed to activate
fusion of LC3-positive autophagosomes with LAMP1-positive lysosomes [2]: reduced fusion
activation of S1P receptor 1 [3]: weakly activated
4F2hc surface levels [4]: reduced 4F2hc surface levels

CCCCCCCCc1ccc([C@@H]2CCN[C@H]2CO)cc1.Cl [Compound 6]
activation of S1P receptor 2 [1]: failed to activate
activation of S1P receptor 1 [3]: weakly activated
4F2hc surface levels [4]: reduced 4F2hc surface levels

CCCCCCCCc1ccc(CCC(N)(CO)CO)cc1.Cl [FTY720, 2-Amino-2-[2-(4-octylphenyl)ethyl]propane 1,3-diol hydrochloride, reference compound]
fusion of LC3-positive autophagosomes with LAMP1-positive lysosomes [2]: reduced fusion
